Source: paper PMC10041525, “New Dual Inhibitors of Bacterial Topoisomerases with Broad-Spectrum Antibacterial Activity and In Vivo Efficacy against Vancomycin-Intermediate Staphylococcus aureus” (Journal of Medicinal Chemistry, 2023)
≈ marks a conversion by molar mass, not a printed value. Where two headings read alike, the source gives them in different places.

Tests used:
[1] = tested on: 100 A. baumannii strains (50 MDR, 50 non-MDR); test: MIC broth microdilution at IHMA Europe, panel of 100 strains; type: cell-based; conditions: for MIC / MIC50 / MIC90: Acinetobacter baumannii; for MIC50: read-out: MIC 50; for MIC90: read-out: MIC 90
[2] = tested on: Neisseria gonorrhoeae (n = 12); test: MIC broth microdilution at IHMA Europe; type: cell-based; conditions: for MIC: Neisseria gonorrhoeae, read-out: MIC

`O=C(O)c1cn(C2CC2)c2cc(N3CCNCC3)c(F)cc2c1=O` [ciprofloxacin] gave an MIC ([1]; A. baumannii IHMA 1769393, Lithuania 2018, Non-MDR, read-out: MIC) of 0.5 µg/mL (≈ 1.51 µM), an MIC ([1]; A. baumannii IHMA 1769782, Israel 2018, MDR, read-out: MIC) greater than 16 µg/mL and an MIC ([1]; A. baumannii IHMA 1769910, Israel 2018, Non-MDR, read-out: MIC) of 1 µg/mL (≈ 3.02 µM). It also gave an MIC ([1]; A. baumannii IHMA 1790317, Czech Republic 2018, Non-MDR, read-out: MIC) of no more than 0.06 µg/mL, an MIC ([1]; A. baumannii IHMA 1790916, Romania 2018, Non-MDR, read-out: MIC) of no more than 0.06 µg/mL and an MIC ([1]; A. baumannii IHMA 1791877, Israel 2018, MDR, read-out: MIC) greater than 16 µg/mL. For the same compound, the MIC ([1]; A. baumannii IHMA 1792961, Jordan 2018, MDR, read-out: MIC) was greater than 16 µg/mL, the MIC ([1]; A. baumannii IHMA 1795669, Tunisia 2018, Non-MDR, read-out: MIC) was no more than 0.06 µg/mL and the MIC ([1]; A. baumannii IHMA 1814276, Lebanon 2018, MDR, read-out: MIC) was greater than 16 µg/mL. It also gave an MIC ([1]; A. baumannii IHMA 1815198, Kuwait 2018, MDR, read-out: MIC) greater than 16 µg/mL, an MIC ([1]; A. baumannii IHMA 1815856, Israel 2018, MDR, read-out: MIC) greater than 16 µg/mL and an MIC ([1]; A. baumannii IHMA 1830924, United Kingdom 2018, Non-MDR, read-out: MIC) of 0.5 µg/mL (≈ 1.51 µM). It also gave an MIC ([1]; A. baumannii IHMA 1849819, Kuwait 2018, MDR, read-out: MIC) greater than 16 µg/mL, an MIC ([1]; A. baumannii IHMA 1849829, Kuwait 2018, Non-MDR, read-out: MIC) of no more than 0.06 µg/mL and an MIC ([1]; A. baumannii IHMA 1926285, Qatar 2018, Non-MDR, read-out: MIC) of no more than 0.06 µg/mL. The MIC ([1]; A. baumannii IHMA 1926288, Qatar 2018, MDR, read-out: MIC) was greater than 16 µg/mL, the MIC ([1]; A. baumannii IHMA 1963732, Turkey 2019, MDR, read-out: MIC) was greater than 16 µg/mL and the MIC ([1]; A. baumannii IHMA 1967860, Spain 2019, Non-MDR, read-out: MIC) was 1 µg/mL (≈ 3.02 µM). The MIC ([1]; A. baumannii IHMA 1971673, Latvia 2019, MDR, read-out: MIC) was greater than 16 µg/mL, the MIC ([1]; A. baumannii IHMA 1983151, Greece 2019, MDR, read-out: MIC) was greater than 16 µg/mL and the MIC ([1]; A. baumannii IHMA 1984665, Lithuania 2019, MDR, read-out: MIC) was greater than 16 µg/mL. For the same compound, the MIC ([1]; A. baumannii IHMA 1986738, Turkey 2019, MDR, read-out: MIC) was greater than 16 µg/mL, the MIC ([1]; A. baumannii IHMA 1987162, Croatia 2019, MDR, read-out: MIC) was greater than 16 µg/mL and the MIC ([1]; A. baumannii IHMA 1993615, Turkey 2019, MDR, read-out: MIC) was greater than 16 µg/mL. It also gave an MIC ([1]; A. baumannii IHMA 1994284, Italy 2019, MDR, read-out: MIC) greater than 16 µg/mL, an MIC ([1]; A. baumannii IHMA 2003279, Turkey 2019, MDR, read-out: MIC) greater than 16 µg/mL and an MIC ([1]; A. baumannii IHMA 2014931, South Africa 2019, Non-MDR, read-out: MIC) of 2 µg/mL (≈ 6.04 µM). The MIC ([1]; A. baumannii IHMA 2020360, Croatia 2019, MDR, read-out: MIC) was greater than 16 µg/mL, the MIC ([1]; A. baumannii IHMA 2031511, Greece 2019, Non-MDR, read-out: MIC) was no more than 0.06 µg/mL and the MIC ([1]; A. baumannii IHMA 2031524, Greece 2019, MDR, read-out: MIC) was greater than 16 µg/mL. For the same compound, the MIC ([1]; A. baumannii IHMA 2035089, Serbia 2019, MDR, read-out: MIC) was greater than 16 µg/mL, the MIC ([1]; A. baumannii IHMA 2038976, Hungary 2019, MDR, read-out: MIC) was greater than 16 µg/mL and the MIC ([1]; A. baumannii IHMA 2051503, Serbia 2019, MDR, read-out: MIC) was greater than 16 µg/mL. The MIC ([1]; A. baumannii IHMA 2065587, France 2019, Non-MDR, read-out: MIC) was no more than 0.06 µg/mL, the MIC ([1]; A. baumannii IHMA 2129256, Qatar 2019, Non-MDR, read-out: MIC) was no more than 0.06 µg/mL and the MIC ([1]; A. baumannii IHMA 2154584, Israel 2020, MDR, read-out: MIC) was greater than 16 µg/mL. The MIC ([1]; A. baumannii IHMA 2155340, Kenya 2020, MDR, read-out: MIC) was greater than 16 µg/mL, the MIC ([1]; A. baumannii IHMA 2156634, Turkey 2020, MDR, read-out: MIC) was greater than 16 µg/mL and the MIC ([1]; A. baumannii IHMA 2156709, Turkey 2020, MDR, read-out: MIC) was greater than 16 µg/mL. It also gave an MIC ([1]; A. baumannii IHMA 2177232, Lithuania 2020, MDR, read-out: MIC) greater than 16 µg/mL, an MIC ([1]; A. baumannii IHMA 2177489, Lithuania 2020, MDR, read-out: MIC) greater than 16 µg/mL and an MIC ([1]; A. baumannii IHMA 2178574, Ukraine 2020, Non-MDR, read-out: MIC) of no more than 0.06 µg/mL. The MIC ([1]; A. baumannii IHMA 2180142, Malaysia 2020, MDR, read-out: MIC) was greater than 16 µg/mL, the MIC ([1]; A. baumannii IHMA 2181370, Morocco 2020, MDR, read-out: MIC) was greater than 16 µg/mL and the MIC ([1]; A. baumannii IHMA 2183729, Argentina 2020, MDR, read-out: MIC) was greater than 16 µg/mL. The MIC ([1]; A. baumannii IHMA 2193375, Venezuela 2020, MDR, read-out: MIC) was greater than 16 µg/mL, the MIC ([1]; A. baumannii IHMA 2193485, Venezuela 2020, Non-MDR, read-out: MIC) was no more than 0.06 µg/mL and the MIC ([1]; A. baumannii IHMA 2193607, Venezuela 2020, MDR, read-out: MIC) was greater than 16 µg/mL. The MIC ([1]; A. baumannii IHMA 2195460, Italy 2020, MDR, read-out: MIC) was greater than 16 µg/mL, the MIC ([1]; A. baumannii IHMA 2196914, South Africa 2020, MDR, read-out: MIC) was greater than 16 µg/mL and the MIC ([1]; A. baumannii IHMA 2196959, South Africa 2020, MDR, read-out: MIC) was greater than 16 µg/mL. For the same compound, the MIC ([1]; A. baumannii IHMA 2203763, Spain 2020, MDR, read-out: MIC) was greater than 16 µg/mL, the MIC ([1]; A. baumannii IHMA 2205144, Korea, South 2020, MDR, read-out: MIC) was greater than 16 µg/mL and the MIC ([1]; A. baumannii IHMA 2206459, Taiwan 2020, MDR, read-out: MIC) was greater than 16 µg/mL. It also gave an MIC ([1]; A. baumannii IHMA 2206507, Taiwan 2020, Non-MDR, read-out: MIC) of no more than 0.06 µg/mL, an MIC ([1]; A. baumannii IHMA 2216586, Taiwan 2020, MDR, read-out: MIC) greater than 16 µg/mL and an MIC ([1]; A. baumannii IHMA 2224017, Panama 2020, MDR, read-out: MIC) greater than 16 µg/mL. For the same compound, the MIC ([1]; A. baumannii IHMA 2231797, Greece 2020, MDR, read-out: MIC) was greater than 16 µg/mL, the MIC ([1]; A. baumannii IHMA 2233099, Guatemala 2020, MDR, read-out: MIC) was greater than 16 µg/mL and the MIC ([1]; A. baumannii IHMA 2233430, Kazakhstan 2020, MDR, read-out: MIC) was greater than 16 µg/mL. It also gave an MIC ([1]; A. baumannii IHMA 2238964, Thailand 2020, MDR, read-out: MIC) greater than 16 µg/mL, an MIC ([1]; A. baumannii IHMA 2261047, Belgium 2020, MDR, read-out: MIC) greater than 16 µg/mL and an MIC ([1]; A. baumannii IHMA 2274234, South Africa 2020, MDR, read-out: MIC) greater than 16 µg/mL. The MIC ([1]; A. baumannii IHMA 2274364, South Africa 2020, MDR, read-out: MIC) was greater than 16 µg/mL, the MIC ([1]; A. baumannii IHMA 2275751, Jordan 2020, MDR, read-out: MIC) was greater than 16 µg/mL and the MIC ([1]; A. baumannii IHMA 2316205, United States 2020, MDR, read-out: MIC) was greater than 16 µg/mL. For the same compound, the MIC ([1]; MDR n = 50, read-out: MAX (maximum MIC; all strains inhibited)) was greater than 16 µg/mL, the MIC50 ([1]; MDR n = 50) was greater than 16 µg/mL and the MIC90 ([1]; MDR n = 50) was greater than 16 µg/mL. It also gave an MIC ([1]; MDR n = 50, read-out: MIN (minimum MIC)) greater than 16 µg/mL, an MIC ([1]; all isolates n = 100, read-out: MAX (maximum MIC; all strains inhibited)) greater than 16 µg/mL and an MIC50 ([1]; all isolates n = 100) of 2 µg/mL (≈ 6.04 µM). It also gave an MIC90 ([1]; all isolates n = 100) greater than 16 µg/mL, an MIC ([1]; all isolates n = 100, read-out: MIN (minimum MIC)) of no more than 0.06 µg/mL and an MIC ([1]; non-MDR n = 50, read-out: MAX (maximum MIC)) of 2 µg/mL (≈ 6.04 µM). For the same compound, the MIC ([1]; non-MDR n = 50, read-out: MIN (minimum MIC)) was no more than 0.06 µg/mL, the “Percentage I” value ([1]; MDR n = 50) was 0% and the “Percentage R” value ([1]; MDR n = 50) was 100%. The “Percentage S” value ([1]; MDR n = 50) was 0%, the “Percentage I” value ([1]; non-MDR n = 50) was 2% and the “Percentage R” value ([1]; non-MDR n = 50) was 0%. For the same compound, the “Percentage S” value ([1]; non-MDR n = 50) was 98%, the “Cumulative % at MIC” value ([2]; MIC 0.004 µg/mL) was 41.7% and the “No. of isolates at MIC” value ([2]; MIC 0.004 µg/mL) was 5. The “Cumulative % at MIC” value ([2]; MIC >[…] µg/mL) was 100.0%, the “No. of isolates at MIC” value ([2]; MIC >[…] µg/mL) was 2 and the MIC ([2]; isolate IHMA 1123853) was greater than 8 µg/mL. The MIC ([2]; isolate IHMA 1130935) was 4 µg/mL (≈ 12.1 µM), the MIC ([2]; isolate IHMA 1130989) was 4 µg/mL (≈ 12.1 µM) and the MIC ([2]; isolate IHMA 1130991) was 8 µg/mL (≈ 24.1 µM). It also gave an MIC ([2]; isolate IHMA 1137292) greater than 8 µg/mL, an MIC ([2]; isolate IHMA 1145734) of 8 µg/mL (≈ 24.1 µM) and an MIC ([2]; isolate IHMA 1145735) of 4 µg/mL (≈ 12.1 µM). For the same compound, the MIC ([2]; isolate IHMA 1165897) was 0.004 µg/mL (≈ 0.0121 µM), the MIC ([2]; isolate IHMA 1194748) was 0.004 µg/mL (≈ 0.0121 µM) and the MIC ([2]; isolate IHMA 1194750) was 0.004 µg/mL (≈ 0.0121 µM). It also gave an MIC ([2]; isolate IHMA 1546199) of 0.004 µg/mL (≈ 0.0121 µM) and an MIC ([2]; isolate IHMA 1546215) of 0.004 µg/mL (≈ 0.0121 µM).
